{
  "source": "patent US10874743B2",
  "about": "“IRAK degraders and uses thereof” (Kymera Therapeutics, Inc., priority 2017, dated 2020)",
  "target": "T1, IRAK4 (Homo sapiens, UniProt Q9NWZ3)",
  "T1 sequence (Q9NWZ3 1-460)": "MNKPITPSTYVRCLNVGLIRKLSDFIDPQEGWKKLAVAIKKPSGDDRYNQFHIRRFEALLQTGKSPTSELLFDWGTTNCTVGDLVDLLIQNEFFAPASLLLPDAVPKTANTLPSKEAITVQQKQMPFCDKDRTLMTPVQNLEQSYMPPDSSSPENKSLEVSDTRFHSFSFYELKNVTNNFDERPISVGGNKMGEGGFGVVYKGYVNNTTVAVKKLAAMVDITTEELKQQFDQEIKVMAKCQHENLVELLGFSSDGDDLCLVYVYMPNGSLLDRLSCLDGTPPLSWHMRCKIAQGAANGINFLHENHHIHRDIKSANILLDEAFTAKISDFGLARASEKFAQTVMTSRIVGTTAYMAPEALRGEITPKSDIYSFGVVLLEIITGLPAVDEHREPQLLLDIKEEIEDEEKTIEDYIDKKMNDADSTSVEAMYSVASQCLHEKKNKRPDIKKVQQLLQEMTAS",
  "assay": "PBMC degradation assay (western blot, % IRAK4 degraded after 4 hours)",
  "type": "cell-based",
  "settings": "human PBMCs",
  "protocol": "Protocol summary of PBMC degradation studies from compound treatment through quantitation.\nPBMC culture medium: Human peripheral blood mononuclear cells (PBMCs): RPMI+10% FBS (Heat-inactivated)+1% P/S.\nCells were cultured at a minimum of 2.5×10^6 c/mL. • PBMCs were incubated @ 37° C./5% CO2 and allowed to rest overnight. • Following overnight recovery, a cell count/viability assessment by trypan blue exclusion was performed. Cells densities were adjusted back to 2.5×10^6 c/mL (proceed with plating only if viability >80%). • In a 6 well plate, 2.0 mL of cells were added to each well for a minimum of 5×10^6 CT per treatment condition. Compounds dilutions were prepared from 20 mM stock and were added at a final 1000× dilution (0.1% DMSO concentration). • At the end of treatment, cells were harvested and spun @ 1800 rpm for 5 min. 1×PBS wash and spun again @ 1800 rpm for 5 min. Cell pellets were frozen and stored at −80° C. until further processing. • Lysates were generated by resuspending in lysis buffer. Protein quantification was performed with a BCA kit. • 20 μg of protein were loaded per lane and run on a 26-well 4-12% Bis-Tris SDS-page gel. • Transfers were performed on PVDF membranes using the BioRad Mixed MW turbo program for 7 min. • Membranes were blocked for one hour on a rocker at room temperature. • Primary antibodies were incubated overnight at 4° C. on a rocker. • Membranes were washed 3×TBST, 5 min each. • Secondaries were added and incubated for one hour on a rocker at room temperature. • Membranes were washed 3×TBST, 5 min each and rinsed well with deionized H2O. Membranes were scanned using the Licor Odessey CLx and bands were quantified using Image Studio Lite Version 5.2 software.\nPBMC results at 4 hours. The letter codes indicate the percentage of IRAK4 degraded after 4 hours: A (>50% degradation), B (>20-50% degradation) and C (<20% degradation)",
  "data": [
    {"smiles": "NC(=O)c1nn(-c2ccc(C(=O)NCCCCCNCCNc3cccc4c3C(=O)N(C3CCC(=O)NC3=O)C4=O)cc2)cc1NC(=O)c1coc(-c2ccnc(NCC(F)(F)F)c2)n1", "note": "(centres unmarked) [I-172, N-[3-carbamoyl-1-[4-[5-[2-[[2-(2,6-dioxo-3-piperidyl)-1,3-dioxo-isoindolin-4-yl]amino]ethylamino]pentylcarbamoyl]phenyl]pyrazol-4-yl]-2-[2-(2,2,2-trifluoroethylamino)-4-pyridyl]oxazole-4-carboxamide]", "values": [
      {"measurement": "PBMC % IRAK4 Degradation", "value": "A (>50% degradation)"}
    ]},
    {"smiles": "NC(=O)c1nn(-c2ccc(C(=O)NCCOCCOCCNc3cccc4c3C(=O)N(C3CCC(=O)NC3=O)C4=O)cc2)cc1NC(=O)c1coc(-c2ccnc(NCC(F)(F)F)c2)n1", "note": "(centres unmarked) [I-127, N-[3-carbamoyl-1-[4-[2-[2-[2-[[2-(2,6-dioxo-3-piperidyl)-1,3-dioxo-isoindolin-4-yl]amino]ethoxy]ethoxy]ethylcarbamoyl]phenyl]pyrazol-4-yl]-2-[2-(2,2,2-trifluoroethylamino)-4-pyridyl]oxazole-4-carboxamide]", "values": [
      {"measurement": "PBMC % IRAK4 Degradation", "value": "A (>50% degradation)"}
    ]}
  ]
}
